Tests used:
Assay type in all cases: in vivo
[1] = tested on: barnyardgrass (Echinochloa crus-galli); test: Test A preemergence barnyardgrass; details: 0 to 100 scale; for Barnyardgrass plant response rating: 0 no effect, 100 complete control
From the text: (§1) Seeds of plant species selected from barnyardgrass (Echinochloa crus-galli), kochia (Kochia scoparia), ragweed (common ragweed, Ambrosia elatior), ryegrass, Italian (Italian ryegrass, Lolium multiflorum), crabgrass, large (large crabgrass, Digitaria sanguinalis), foxtail, giant (giant foxtail, Setaria faberii), morningglory (Ipomoea spp.), pigweed (Amaranthus retroflexus), velvetleaf (Abutilon theophrasti), wheat (Triticum aestivum), and corn (Zea mays) were planted into a blend of loam soil and sand and treated preemergence with a directed soil spray using test chemicals formulated in a non-phytotoxic solvent mixture which included a surfactant.
(§2) At the same time, plants selected from these crop and weed species and also blackgrass (Alopecurus myosuroides), and galium (catchweed bedstraw, Galium aparine) were planted in pots containing the same blend of loam soil and sand and treated with postemergence applications of test chemicals formulated in the same manner. Plants ranged in height from 2 to 10 cm and were in the one- to two-leaf stage for the postemergence treatment. Treated plants and untreated controls were maintained in a greenhouse for approximately 10 d, after which time all treated plants were compared to untreated controls and visually evaluated for injury. Plant response ratings, summarized in Table A, are based on a 0 to 100 scale where 0 is no effect and 100 is complete control. A dash (-) response means no test result.

kochia (Kochia scoparia) [2] = test: Test A preemergence kochia; details: 0 to 100 scale, 0 no effect, 100 complete control
From the text: as §1, §2

[3] = tested on: ragweed (common ragweed, Ambrosia elatior); test: Test A preemergence ragweed; details: 0 to 100 scale, 0 no effect, 100 complete control
From the text: as §1, §2

[4] = tested on: ryegrass, Italian (Italian ryegrass, Lolium multiflorum); test: Test A preemergence ryegrass, Italian; details: 0 to 100 scale, 0 no effect, 100 complete control
From the text: as §1, §2

[5] = tested on: foxtail, giant (giant foxtail, Setaria faberii); test: Test A preemergence foxtail, giant; details: 0 to 100 scale, 0 no effect, 100 complete control
From the text: as §1, §2

[6] = tested on: pigweed (Amaranthus retroflexus); test: Test A preemergence pigweed; details: 0 to 100 scale, 0 no effect, 100 complete control
From the text: as §1, §2

[7] = tested on: barnyardgrass (Echinochloa crus-galli); test: Test A postemergence barnyardgrass; details: 0 to 100 scale, 0 is no effect, 100 is complete control
From the text: as §1, §2

kochia (Kochia scoparia) [8] = test: Test A postemergence kochia; details: 0 to 100 scale, 0 is no effect, 100 is complete control
From the text: as §1, §2

[9] = tested on: ragweed (common ragweed, Ambrosia elatior); test: Test A postemergence ragweed; details: 0 to 100 scale, 0 is no effect, 100 is complete control
From the text: as §1, §2

[10] = tested on: ryegrass, Italian (Italian ryegrass, Lolium multiflorum); test: Test A postemergence ryegrass, Italian; details: 0 to 100 scale, 0 is no effect, 100 is complete control
From the text: as §1, §2

[11] = tested on: foxtail, giant (giant foxtail, Setaria faberii); test: Test A postemergence foxtail, giant; details: 0 to 100 scale, 0 is no effect, 100 is complete control
From the text: as §1, §2

[12] = tested on: pigweed (Amaranthus retroflexus); test: Test A postemergence pigweed; details: 0 to 100 scale, 0 is no effect, 100 is complete control
From the text: as §1, §2

[13] = tested on: wheat (Triticum aestivum); test: Test A postemergence wheat; details: 0 to 100 scale, 0 is no effect, 100 is complete control
From the text: as §1, §2

corn (Zea mays) = test: Test A postemergence corn; details: 0 to 100 scale, 0 is no effect, 100 is complete control
From the text: as §1, §2

[14] = tested on: blackgrass (Alopecurus myosuroides); test: Test A postemergence blackgrass; details: 0 to 100 scale, 0 is no effect, 100 is complete control
From the text: as §1, §2

[15] = tested on: galium (catchweed bedstraw, Galium aparine); test: Test A postemergence galium; details: 0 to 100 scale, 0 is no effect, 100 is complete control
From the text: as §1, §2

rice (Oryza sativa) = test: Test B flooded paddy test rice; details: Table B, Flood, 250 g ai/ha, scale 0 to 100
Experimental: (§3) Plant species in the flooded paddy test selected from rice (Oryza sativa), sedge, umbrella (small-flower umbrella sedge, Cyperus difformis), ducksalad (Heteranthera limosa), and barnyardgrass (Echinochloa crus-galli) were grown to the 2-leaf stage for testing. At the time of treatment, test pots were flooded to 3 cm above the soil surface, treated by application of test compounds directly to the paddy water, and then maintained at that water depth for the duration of the test. Treated plants and controls were maintained in a greenhouse for 13 to 15 d, after which time all species were compared to controls and visually evaluated. […] A dash (-) response means no test result.

[16] = tested on: sedge, umbrella (small-flower umbrella sedge, Cyperus difformis); test: Test B flooded paddy test sedge, umbrella; details: Table B, Flood, 250 g ai/ha, scale 0 to 100
Experimental: as §3

[17] = tested on: ducksalad (Heteranthera limosa); test: Test B flooded paddy test ducksalad; details: Table B, Flood, 250 g ai/ha, scale 0 to 100
Experimental: as §3

[18] = tested on: barnyardgrass (Echinochloa crus-galli); test: Test B flooded paddy test barnyardgrass; details: Table B, Flood, 250 g ai/ha, scale 0 to 100
Experimental: as §3

| Structure (SMILES) | Barnyardgrass plant response rating ([1]; 125 g ai/ha) | Kochia plant response rating (kochia (Kochia scoparia) [2]; 125 g ai/ha) | Kochia plant response rating (kochia (Kochia scoparia) [2]; 500 g ai/ha) | Ragweed plant response rating ([3]; 125 g ai/ha) | Ragweed plant response rating ([3]; 500 g ai/ha) | Ryegrass, Italian plant response rating ([4]; 125 g ai/ha) | Ryegrass, Italian plant response rating ([4]; 500 g ai/ha) | Foxtail, Giant plant response rating ([5]; 125 g ai/ha) | Foxtail, Giant plant response rating ([5]; 500 g ai/ha) | Pigweed plant response rating ([6]; 125 g ai/ha) | Pigweed plant response rating ([6]; 500 g ai/ha) | Plant response rating, Barnyardgrass ([7]; 125 g ai/ha) | Plant response rating, Barnyardgrass ([7]; 500 g ai/ha) | Plant response rating, Kochia (kochia (Kochia scoparia) [8]; 125 g ai/ha) | Plant response rating, Kochia (kochia (Kochia scoparia) [8]; 500 g ai/ha) | Plant response rating, Ragweed ([9]; 125 g ai/ha) | Plant response rating, Ragweed ([9]; 500 g ai/ha) | Plant response rating, Ryegrass, Italian ([10]; 125 g ai/ha) | Plant response rating, Ryegrass, Italian ([10]; 500 g ai/ha) | Plant response rating, Foxtail, Giant ([11]; 125 g ai/ha) | further results |
| --- | --- | --- | --- | --- | --- | --- | --- | --- | --- | --- | --- | --- | --- | --- | --- | --- | --- | --- | --- | --- | --- |
| O=C1NCCC(c2cccc(C(F)F)c2)C1C(=O)Nc1ccc(F)c(F)c1F (centres unmarked) [Compound 47] | 70 | 0 | 0 | 0 | 0 | 0 | 40 | 80 | 90 | 0 | 0 | 50 | 90 | 0 | 0 | 0 | 0 | 0 | 20 | 70 | Barnyardgrass plant response rating ([1]; 500 g ai/ha): 90; Plant response rating, Foxtail, Giant ([11]; 500 g ai/ha): 80; Plant response rating, Pigweed ([12]; 125 g ai/ha): 0; Plant response rating, Pigweed ([12]; 500 g ai/ha): 0; Plant response rating, Wheat ([13]; 125 g ai/ha): 0; Plant response rating, Wheat ([13]; 500 g ai/ha): 30; Plant response rating, Corn (corn (Zea mays); 125 g ai/ha): 0; Plant response rating, Corn (corn (Zea mays); 500 g ai/ha): 0; Plant response rating, Blackgrass ([14]; 125 g ai/ha): 0; Plant response rating, Blackgrass ([14]; 500 g ai/ha): 0; Plant response rating, Galium ([15]; 125 g ai/ha): 0; Plant response rating, Galium ([15]; 500 g ai/ha): 0; Plant response rating (rice (Oryza sativa)): 0; Plant response rating [16]: 0; Plant response rating [17]: 50; Plant response rating [18]: 0 |
| O=C1NCCC(c2ccccc2C(F)(F)F)C1C(=O)Nc1cccc(F)c1F (racemic) [Compound 8] | 0 | 0 | 0 | 0 | 0 | 0 | 0 | 0 | 0 | 0 | 0 | 0 | 0 | 0 | 0 | 0 | 0 | 0 | 0 | 0 | Plant response rating, Barnyardgrass ([1]; 500 g ai/ha, 0 is no effect, 100 is complete control): 0; Plant response rating, Foxtail, Giant ([11]; 500 g ai/ha): 0; Plant response rating, Pigweed ([12]; 125 g ai/ha): 0; Plant response rating, Pigweed ([12]; 500 g ai/ha): 0; Plant response rating, Wheat ([13]; 125 g ai/ha): 0; Plant response rating, Wheat ([13]; 500 g ai/ha): 0; Plant response rating, Corn (corn (Zea mays); 125 g ai/ha): 0; Plant response rating, Corn (corn (Zea mays); 500 g ai/ha): 0; Plant response rating, Blackgrass ([14]; 125 g ai/ha): 0; Plant response rating, Blackgrass ([14]; 500 g ai/ha): 0; Plant response rating, Galium ([15]; 125 g ai/ha): 0; Plant response rating, Galium ([15]; 500 g ai/ha): 0 |

From patent US9944602B2, “Piperidinone herbicides” (E. I. DU PONT DE NEMOURS AND COMPANY, priority 2014, dated 2018)
